The text below walks through data of patent US7795291B2, “Substituted acid derivatives useful as anti-atherosclerotic, anti-dyslipidemic, anti-diabetic and anti-obesity agents and method” (Bristol-Myers Squibb Company, priority 2006, dated 2010).

Test [1] concerns the target T1, human PPARα receptor (Homo sapiens, UniProt Q07869).
T1 construct: transiently transfecting GAL4-hPPARα-LBD or GAL4-hPPARγ-LBD constructs; GAL4 (fusion partner); expressed in transfected cells; host or cells: HEK293 cells stably expressing 5×GAL4RE-Luciferase
T1 sequence (Q07869 239-466 limits assumed): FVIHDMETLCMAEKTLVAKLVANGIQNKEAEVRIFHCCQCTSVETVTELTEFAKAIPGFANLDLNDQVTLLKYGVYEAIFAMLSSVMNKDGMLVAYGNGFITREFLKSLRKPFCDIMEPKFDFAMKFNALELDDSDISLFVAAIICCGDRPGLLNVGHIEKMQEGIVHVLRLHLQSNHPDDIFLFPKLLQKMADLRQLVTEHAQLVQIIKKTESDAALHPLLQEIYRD
Nature of the test: GAL4-hPPARα-LBD functional transactivation (luciferase) assay in HEK293 cells. It counts as cell-based. The conditions noted are these: for Emax: HEK293, maximum activity vs maximal activity of 100 μM fenofibric acid, read-out: PPARα % efficacy. The method, then:
(§1) In vitro PPAR agonist functional assays were performed by transiently transfecting GAL4-hPPARα-LBD or GAL4-hPPARγ-LBD constructs respectively into HEK293 (human embryonic kidney) cells stably expressing 5×GAL4RE-Luciferase. Agonist binding results in an increase in luciferase enzyme activity which can be monitored by measuring luminescence upon cell lysing and the addition of luciferin substrate. EC50 values (μM) for PPARα or γ agonist activity were calculated as the concentration of the test ligand (μM) required for the half-maximal activity in HEK293 cells. The efficacy of a test ligand is defined as its maximum activity as compared to the maximal activity of the primary standards, 100 μM fenofibric acid for PPARα and 1 μM rosiglitazone for PPARγ, reported as % efficacy.

Test [2] has as its target T2, human PPARγ receptor (Homo sapiens, UniProt P37231).
T2 construct: transiently transfecting GAL4-hPPARα-LBD or GAL4-hPPARγ-LBD constructs; GAL4 (fusion partner); expressed in transfected cells; host or cells: HEK293 cells stably expressing 5×GAL4RE-Luciferase
T2 sequence (P37231 238-503 limits assumed): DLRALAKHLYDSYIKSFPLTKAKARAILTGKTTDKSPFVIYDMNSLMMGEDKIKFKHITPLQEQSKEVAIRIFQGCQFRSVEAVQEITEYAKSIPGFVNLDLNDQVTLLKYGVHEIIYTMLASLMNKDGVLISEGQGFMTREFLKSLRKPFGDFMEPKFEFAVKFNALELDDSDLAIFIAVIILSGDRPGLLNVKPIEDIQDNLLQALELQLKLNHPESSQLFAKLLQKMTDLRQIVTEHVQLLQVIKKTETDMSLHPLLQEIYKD
Briefly: GAL4-hPPARγ-LBD functional transactivation (luciferase) assay in HEK293 cells. It counts as cell-based. The conditions noted are these: for Emax: HEK293, maximum activity vs maximal activity of 1 μM rosiglitazone, read-out: PPARγ % efficacy. As to the method:
as §1

Test [3] concerns high fat-fed hamster. Briefly: High fat-fed hamster model: plasma triglyceride and cholesterol levels. It counts as in vivo, Golden Syrian Hamster (Mesocricetus auratus). The conditions noted are these: 10 mg/kg orally dosed once daily for 14 days; high fat-fed male hamsters, fasted overnight. As to the method:
It is known by one skilled in the art that the compounds of the present invention decrease plasma triglycerides and cholesterol levels at doses ≧10 mg/kg in rodent models of atherosclerosis and dyslipidemia (e.g. the high fat-fed hamster model). The typical administration of said compounds is expected to be between 0.1 to 2,000 mg/day in the clinical setting, and is preferably between 0.5 to 100 mg/day. (Reference for high fat-fed hamster model as an in vivo rodent model for anti-atheroslerosis efficacy: P-R Wang et al., Eur. Journ. of Pharm., 2001, 427, 285-293).
Male Golden Syrian Hamster (Mesocricetus auratus), 7-10 weeks of age and weighing 110-120 grams, were put on a high fat diet (D11953) for two weeks. The high fat diet was formulated by Research Diets, Inc, New Brunswick, N.J. using Purina 5001 as the base diet. Final composition (% by weight) of the diet is: 11.5% coconut oil, 11.5% corn oil, 0.5% cholesterol and 5% fructose. […] Plasma samples were obtained from hamsters fasted overnight (18 hours after last administration of compound) on day 22. The plasma triglyceride and cholesterol levels were determined and the percentage reductions in both parameters of drug-treated animals relative to vehicle-treated animals are shown in Table 2 below.

For the molecule `COC(=O)N(CC(=O)O)Cc1cccc(OCc2nc(-c3ccc(Cl)cc3)oc2C)c1` [Compound 1, Glycine, N-[[3-[[2-(4-chlorophenyl)-5-methyl-4-oxazolyl]methoxy]phenyl]methyl]-N-(methoxycarbonyl)-], the Emax in test [1] stood at 81%. Besides, the Emax in test [2] turned out to be 83%. In test [3], the “% Reduction in Plasma Total Cholesterol vs Vehicle-control group” value is reported as −38% and the “% Reduction in Plasma Triglycerides vs Vehicle-control group” value is listed as −77%.

With `COC(=O)N(CC(=O)O)Cc1cc(OCc2nc(-c3ccc(Cl)cc3)oc2C)ccc1F` [Compound 2], the EC50 in test [1] (GAL4-hPPARα-LBD in HEK293 cells, 5×GAL4RE-Luciferase) worked out at 4 ± 1 nM; in test [2] (GAL4-hPPARγ-LBD in HEK293 cells, 5×GAL4RE-Luciferase), 4510 ± 1310 nM. The Emax in test [1] was found to be 81%; in test [2], 67%. In addition, the “% Reduction in Plasma Total Cholesterol vs Vehicle-control group” value in test [3] is listed as −60%. For the same molecule, in test [3], the “% Reduction in Plasma Triglycerides vs Vehicle-control group” value was −85%.

By EC50 is commonly meant the concentration at which the effect is half-maximal. Read a low EC50 as higher potency in that assay.
